Experiments:
[1] = biological target: Glycogen synthase kinase-3 alpha (Homo sapiens, UniProt P49840); experiment: Inhibition of GSK3alpha
[2] = biological target: T1, Cytoplasmic tyrosine-protein kinase BMX (Homo sapiens) (UniProt P51813); experiment: Inhibition of Bmx assessed as activity remaining at 10 uM
T1 sequence (whole entry): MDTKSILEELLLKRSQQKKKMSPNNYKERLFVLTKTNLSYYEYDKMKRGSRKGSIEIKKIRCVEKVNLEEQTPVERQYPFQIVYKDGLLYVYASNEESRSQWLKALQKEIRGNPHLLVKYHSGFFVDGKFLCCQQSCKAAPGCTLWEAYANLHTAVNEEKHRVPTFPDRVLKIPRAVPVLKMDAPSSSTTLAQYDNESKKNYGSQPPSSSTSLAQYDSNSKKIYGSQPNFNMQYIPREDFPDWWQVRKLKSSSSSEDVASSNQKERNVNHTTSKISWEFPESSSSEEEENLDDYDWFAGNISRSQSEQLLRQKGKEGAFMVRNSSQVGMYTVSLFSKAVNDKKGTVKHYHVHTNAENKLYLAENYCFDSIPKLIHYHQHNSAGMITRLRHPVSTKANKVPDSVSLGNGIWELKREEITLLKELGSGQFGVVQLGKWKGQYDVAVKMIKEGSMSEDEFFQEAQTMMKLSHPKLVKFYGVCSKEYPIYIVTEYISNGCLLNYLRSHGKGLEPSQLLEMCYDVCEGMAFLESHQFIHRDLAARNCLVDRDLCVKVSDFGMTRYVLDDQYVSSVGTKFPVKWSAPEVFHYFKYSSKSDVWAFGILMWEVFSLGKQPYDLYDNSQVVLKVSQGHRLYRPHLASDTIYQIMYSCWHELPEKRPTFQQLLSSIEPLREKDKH

[3] = Inhibition of CK2 assessed as activity remaining at 10 uM
[4] = biological target: Macrophage colony-stimulating factor 1 receptor (Homo sapiens) (UniProt P07333); experiment: Inhibition of Fms assessed as activity remaining at 10 uM
[5] = biological target: T2, Tyrosine-protein kinase ITK/TSK (Homo sapiens) (UniProt Q08881); experiment: Inhibition of Itk assessed as activity remaining at 10 uM
T2 sequence (whole entry): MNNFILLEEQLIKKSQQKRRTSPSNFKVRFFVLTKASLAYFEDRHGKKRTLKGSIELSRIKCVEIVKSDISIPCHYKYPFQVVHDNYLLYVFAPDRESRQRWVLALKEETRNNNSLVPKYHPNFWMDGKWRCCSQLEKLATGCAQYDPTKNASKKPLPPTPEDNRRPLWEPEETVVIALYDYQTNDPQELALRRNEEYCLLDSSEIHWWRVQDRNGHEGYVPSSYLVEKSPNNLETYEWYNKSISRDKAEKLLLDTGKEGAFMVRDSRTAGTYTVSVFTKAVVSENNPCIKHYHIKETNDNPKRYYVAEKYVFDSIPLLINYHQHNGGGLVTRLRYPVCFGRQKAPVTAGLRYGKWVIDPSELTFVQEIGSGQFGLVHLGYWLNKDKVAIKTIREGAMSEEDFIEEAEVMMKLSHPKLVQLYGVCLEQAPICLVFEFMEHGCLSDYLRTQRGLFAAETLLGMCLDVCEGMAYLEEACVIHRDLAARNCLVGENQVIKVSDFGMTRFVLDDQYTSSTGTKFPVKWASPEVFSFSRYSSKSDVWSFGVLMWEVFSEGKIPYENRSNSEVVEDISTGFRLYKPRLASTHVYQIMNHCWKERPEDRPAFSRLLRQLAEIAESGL

[6] = Metabolic stability in rat hepatocytes assessed as compound remaining after 60 mins; assay type: ADME, cell-based, Hepatocyte; settings: read-out: Stability
[7] = biological target: 3-phosphoinositide-dependent protein kinase 1 (Homo sapiens) (UniProt O15530); experiment: Inhibition of PDK1 assessed as activity remaining at 10 uM
[8] = biological target: Tyrosine-protein kinase JAK2 (Homo sapiens) (UniProt O60674); experiment: Inhibition of JAK2 assessed as activity remaining at 10 uM
[9] = biological target: Tyrosine-protein kinase Lck (Homo sapiens) (UniProt P06239); experiment: Inhibition of Lck assessed as activity remaining at 10 uM
[10] = biological target: Tyrosine-protein kinase Lyn (Homo sapiens) (UniProt P07948); experiment: Inhibition of LYN-A assessed as activity remaining at 10 uM
[11] = biological target: MAP kinase-activated protein kinase 3 (Homo sapiens) (UniProt Q16644); experiment: Inhibition of MAPKAP-K3 assessed as activity remaining at 10 uM
[12] = biological target: Serine/threonine-protein kinase mTOR (Homo sapiens, UniProt P42345); experiment: Inhibition of mTOR assessed as activity remaining at 10 uM
[13] = biological target: Serine/threonine-protein kinase D2 (Homo sapiens) (UniProt Q9BZL6); experiment: Inhibition of PKD2 assessed as activity remaining at 10 uM
[14] = biological target: Serine/threonine-protein kinase PLK1 (Homo sapiens) (UniProt P53350); experiment: Inhibition of Plk1 assessed as activity remaining at 10 uM
[15] = biological target: Macrophage-stimulating protein receptor (Homo sapiens) (UniProt Q04912); experiment: Inhibition of Ron assessed as activity remaining at 10 uM
[16] = biological target: Tyrosine-protein kinase ZAP-70 (Homo sapiens) (UniProt P43403); experiment: Inhibition of ZAP70 assessed as activity remaining at 10 uM

Chain of 3-phosphoinositide-dependent protein kinase 1 (Homo sapiens) (O15530 whole entry, looked up): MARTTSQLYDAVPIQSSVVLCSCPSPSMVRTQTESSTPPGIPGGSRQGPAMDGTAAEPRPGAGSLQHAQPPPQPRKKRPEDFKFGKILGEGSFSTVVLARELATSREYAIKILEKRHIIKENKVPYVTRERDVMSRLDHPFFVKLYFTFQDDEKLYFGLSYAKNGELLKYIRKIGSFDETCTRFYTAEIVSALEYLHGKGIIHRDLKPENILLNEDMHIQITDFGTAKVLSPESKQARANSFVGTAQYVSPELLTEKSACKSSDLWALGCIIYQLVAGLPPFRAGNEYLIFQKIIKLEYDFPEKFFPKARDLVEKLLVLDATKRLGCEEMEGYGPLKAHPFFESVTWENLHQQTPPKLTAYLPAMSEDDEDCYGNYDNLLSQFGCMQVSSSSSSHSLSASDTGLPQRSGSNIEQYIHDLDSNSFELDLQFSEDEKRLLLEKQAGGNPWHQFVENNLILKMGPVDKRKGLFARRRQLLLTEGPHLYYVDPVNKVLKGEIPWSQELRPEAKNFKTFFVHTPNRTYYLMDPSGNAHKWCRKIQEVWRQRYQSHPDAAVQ
Chain of Macrophage colony-stimulating factor 1 receptor (Homo sapiens) (P07333 whole entry): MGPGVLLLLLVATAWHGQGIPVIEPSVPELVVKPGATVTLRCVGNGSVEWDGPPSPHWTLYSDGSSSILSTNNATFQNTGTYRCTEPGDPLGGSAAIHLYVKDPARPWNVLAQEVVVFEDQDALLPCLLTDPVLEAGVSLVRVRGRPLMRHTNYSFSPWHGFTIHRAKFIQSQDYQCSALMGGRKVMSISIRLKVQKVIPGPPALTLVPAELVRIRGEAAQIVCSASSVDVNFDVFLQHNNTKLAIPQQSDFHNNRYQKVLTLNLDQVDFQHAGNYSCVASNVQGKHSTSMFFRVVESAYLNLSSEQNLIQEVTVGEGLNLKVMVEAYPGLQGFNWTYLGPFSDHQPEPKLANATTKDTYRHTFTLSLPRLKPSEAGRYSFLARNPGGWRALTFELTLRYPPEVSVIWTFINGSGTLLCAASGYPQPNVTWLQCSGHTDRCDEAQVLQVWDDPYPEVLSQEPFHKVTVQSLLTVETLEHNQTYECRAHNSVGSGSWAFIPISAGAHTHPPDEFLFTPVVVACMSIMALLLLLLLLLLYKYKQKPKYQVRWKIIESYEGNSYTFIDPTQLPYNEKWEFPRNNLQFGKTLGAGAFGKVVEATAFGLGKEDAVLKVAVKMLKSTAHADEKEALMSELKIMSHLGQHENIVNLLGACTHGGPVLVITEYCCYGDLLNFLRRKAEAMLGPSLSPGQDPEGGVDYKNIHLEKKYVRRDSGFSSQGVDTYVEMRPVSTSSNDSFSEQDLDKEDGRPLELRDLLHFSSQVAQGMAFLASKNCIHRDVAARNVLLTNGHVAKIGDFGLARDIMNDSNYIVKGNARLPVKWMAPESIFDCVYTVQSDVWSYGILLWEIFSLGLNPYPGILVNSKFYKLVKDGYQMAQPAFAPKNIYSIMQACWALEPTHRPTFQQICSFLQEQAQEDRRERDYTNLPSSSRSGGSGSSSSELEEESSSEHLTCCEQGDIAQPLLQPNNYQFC
Chain of Glycogen synthase kinase-3 alpha (P49840 whole entry): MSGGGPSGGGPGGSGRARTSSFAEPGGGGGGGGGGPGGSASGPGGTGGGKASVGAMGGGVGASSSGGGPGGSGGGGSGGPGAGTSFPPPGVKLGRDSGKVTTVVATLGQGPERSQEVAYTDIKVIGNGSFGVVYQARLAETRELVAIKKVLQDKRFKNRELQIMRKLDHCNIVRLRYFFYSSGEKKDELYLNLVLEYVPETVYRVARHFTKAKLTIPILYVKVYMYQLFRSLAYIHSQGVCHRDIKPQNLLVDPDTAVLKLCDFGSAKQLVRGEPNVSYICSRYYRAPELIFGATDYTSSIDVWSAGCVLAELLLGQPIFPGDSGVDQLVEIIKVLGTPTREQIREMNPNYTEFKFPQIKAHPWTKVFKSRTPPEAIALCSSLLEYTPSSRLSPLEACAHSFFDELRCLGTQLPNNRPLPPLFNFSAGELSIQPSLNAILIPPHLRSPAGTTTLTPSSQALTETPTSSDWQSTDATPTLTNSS
Chain of MAP kinase-activated protein kinase 3 (Homo sapiens) (Q16644 whole entry, looked up): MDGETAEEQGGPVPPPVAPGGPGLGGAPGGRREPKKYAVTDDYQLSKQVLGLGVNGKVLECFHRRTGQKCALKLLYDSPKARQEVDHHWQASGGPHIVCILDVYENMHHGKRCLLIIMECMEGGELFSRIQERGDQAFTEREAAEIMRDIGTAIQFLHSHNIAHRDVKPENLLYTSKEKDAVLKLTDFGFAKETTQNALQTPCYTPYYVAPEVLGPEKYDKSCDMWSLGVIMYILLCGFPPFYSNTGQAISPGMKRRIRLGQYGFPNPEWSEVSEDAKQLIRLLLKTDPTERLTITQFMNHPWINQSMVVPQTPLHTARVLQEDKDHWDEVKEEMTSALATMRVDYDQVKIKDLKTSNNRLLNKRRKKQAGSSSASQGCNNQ
Chain of Macrophage-stimulating protein receptor (Homo sapiens) (Q04912 25-304 limits assumed): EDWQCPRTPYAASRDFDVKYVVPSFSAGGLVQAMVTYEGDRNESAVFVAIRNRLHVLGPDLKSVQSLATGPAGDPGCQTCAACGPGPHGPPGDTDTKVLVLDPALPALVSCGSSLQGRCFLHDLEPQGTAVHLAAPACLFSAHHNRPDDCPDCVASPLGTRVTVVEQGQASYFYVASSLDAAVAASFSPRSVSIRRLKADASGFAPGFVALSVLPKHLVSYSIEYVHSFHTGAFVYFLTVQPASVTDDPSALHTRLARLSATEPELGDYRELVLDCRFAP
Chain of Macrophage-stimulating protein receptor (Homo sapiens) (Q04912 310-1400 limits assumed): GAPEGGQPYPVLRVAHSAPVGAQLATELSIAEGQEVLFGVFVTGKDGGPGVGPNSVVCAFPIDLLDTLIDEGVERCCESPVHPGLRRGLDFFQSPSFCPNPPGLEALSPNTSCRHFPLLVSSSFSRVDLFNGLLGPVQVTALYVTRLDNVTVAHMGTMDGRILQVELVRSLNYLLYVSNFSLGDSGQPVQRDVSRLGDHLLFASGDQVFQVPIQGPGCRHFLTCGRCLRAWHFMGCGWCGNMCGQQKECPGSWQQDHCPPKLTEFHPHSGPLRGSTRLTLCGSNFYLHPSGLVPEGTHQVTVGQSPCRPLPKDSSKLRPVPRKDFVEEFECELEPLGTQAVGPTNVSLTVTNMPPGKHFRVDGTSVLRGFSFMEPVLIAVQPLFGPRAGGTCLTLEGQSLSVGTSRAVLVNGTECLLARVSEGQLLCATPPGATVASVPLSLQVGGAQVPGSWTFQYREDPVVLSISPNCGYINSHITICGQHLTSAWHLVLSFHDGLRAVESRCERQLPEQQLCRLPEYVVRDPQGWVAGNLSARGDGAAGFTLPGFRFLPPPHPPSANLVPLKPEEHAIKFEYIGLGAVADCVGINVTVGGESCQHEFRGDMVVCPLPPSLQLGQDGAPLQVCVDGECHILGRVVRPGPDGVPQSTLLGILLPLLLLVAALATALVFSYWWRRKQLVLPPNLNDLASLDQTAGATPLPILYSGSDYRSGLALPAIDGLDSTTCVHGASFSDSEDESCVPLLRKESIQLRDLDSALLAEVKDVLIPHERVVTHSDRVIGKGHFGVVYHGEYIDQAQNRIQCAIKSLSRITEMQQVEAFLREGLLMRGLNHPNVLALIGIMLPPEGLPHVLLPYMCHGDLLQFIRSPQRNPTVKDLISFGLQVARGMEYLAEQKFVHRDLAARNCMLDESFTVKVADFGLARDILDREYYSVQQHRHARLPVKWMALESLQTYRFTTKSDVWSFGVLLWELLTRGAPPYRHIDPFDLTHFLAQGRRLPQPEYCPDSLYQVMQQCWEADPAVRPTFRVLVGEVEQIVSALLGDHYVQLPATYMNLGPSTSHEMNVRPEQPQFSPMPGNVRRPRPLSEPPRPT
Chain of Serine/threonine-protein kinase D2 (Homo sapiens) (Q9BZL6 whole entry): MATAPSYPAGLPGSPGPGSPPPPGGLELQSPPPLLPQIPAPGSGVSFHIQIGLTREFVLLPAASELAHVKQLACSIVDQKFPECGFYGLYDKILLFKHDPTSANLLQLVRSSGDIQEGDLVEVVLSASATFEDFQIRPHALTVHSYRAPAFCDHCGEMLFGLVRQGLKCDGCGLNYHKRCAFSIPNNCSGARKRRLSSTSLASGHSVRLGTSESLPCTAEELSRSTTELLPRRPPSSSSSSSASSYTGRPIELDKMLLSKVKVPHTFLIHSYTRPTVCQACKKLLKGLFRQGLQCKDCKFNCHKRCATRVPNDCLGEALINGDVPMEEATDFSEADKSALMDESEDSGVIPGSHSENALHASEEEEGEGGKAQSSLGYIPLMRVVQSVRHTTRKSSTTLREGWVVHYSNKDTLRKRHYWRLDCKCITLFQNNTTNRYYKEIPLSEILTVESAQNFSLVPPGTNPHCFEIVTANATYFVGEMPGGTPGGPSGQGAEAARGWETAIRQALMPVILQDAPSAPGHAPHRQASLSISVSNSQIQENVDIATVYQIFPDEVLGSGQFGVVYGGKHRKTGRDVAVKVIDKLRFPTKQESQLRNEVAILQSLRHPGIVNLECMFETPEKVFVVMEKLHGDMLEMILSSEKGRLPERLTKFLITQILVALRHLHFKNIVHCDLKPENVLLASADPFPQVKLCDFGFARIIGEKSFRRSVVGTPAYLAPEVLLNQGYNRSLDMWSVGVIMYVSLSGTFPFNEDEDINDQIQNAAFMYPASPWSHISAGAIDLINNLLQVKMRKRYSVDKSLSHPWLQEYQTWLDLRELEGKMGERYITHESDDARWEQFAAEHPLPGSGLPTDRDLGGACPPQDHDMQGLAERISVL

| IC50 [1] [µM] | Activity [2] [%] | Activity [3] [%] | Activity [4] [%] | Activity [5] [%] | remaining at 1 h [6] [%] | Activity [7] [%] | Activity [8] [%] | Activity [9] [%] | Activity [10] [%] | Activity [11] [%] | Activity [12] [%] | Activity [13] [%] | Activity [14] [%] | Activity [15] [%] | Activity [16] [%] | Structure (SMILES) |
| --- | --- | --- | --- | --- | --- | --- | --- | --- | --- | --- | --- | --- | --- | --- | --- | --- |
| 0.6 | 85 | 95 | 26 | 90 | 65 | 92 | – | – | – | – | – | – | – | – | – | CC(C)(O)c1ccc(-c2cnc3[nH]c(=O)n(CC4CCCCC4)c3n2)cc1 |
| – | 93 | 99 | 37 | 99 | – | 91 | 98 | 86 | 96 | 94 | 0 | 94 | 95 | 95 | 99 | O=c1[nH]c2ncc(-c3ccc(-c4nc[nH]n4)cc3)nc2n1CC1CCOCC1 |
| 0.99 | 92 | 73 | 23 | 96 | – | 65 | – | – | – | – | – | – | – | – | – | O=c1[nH]c2ncc(-c3ccc4[nH]cnc4c3)nc2n1CC1CCCCC1 |
